Here are results for one compound from article PMC3365763 (The Journal of Biological Chemistry, 2012).

Common to all, as to type: biochemical
Assay [1] deals with T1, TG2 (transglutaminase-2, transglutaminase type 2) (Homo sapiens, UniProt P21980, K265S).
T1 sequence (P21980 1-687 K265S): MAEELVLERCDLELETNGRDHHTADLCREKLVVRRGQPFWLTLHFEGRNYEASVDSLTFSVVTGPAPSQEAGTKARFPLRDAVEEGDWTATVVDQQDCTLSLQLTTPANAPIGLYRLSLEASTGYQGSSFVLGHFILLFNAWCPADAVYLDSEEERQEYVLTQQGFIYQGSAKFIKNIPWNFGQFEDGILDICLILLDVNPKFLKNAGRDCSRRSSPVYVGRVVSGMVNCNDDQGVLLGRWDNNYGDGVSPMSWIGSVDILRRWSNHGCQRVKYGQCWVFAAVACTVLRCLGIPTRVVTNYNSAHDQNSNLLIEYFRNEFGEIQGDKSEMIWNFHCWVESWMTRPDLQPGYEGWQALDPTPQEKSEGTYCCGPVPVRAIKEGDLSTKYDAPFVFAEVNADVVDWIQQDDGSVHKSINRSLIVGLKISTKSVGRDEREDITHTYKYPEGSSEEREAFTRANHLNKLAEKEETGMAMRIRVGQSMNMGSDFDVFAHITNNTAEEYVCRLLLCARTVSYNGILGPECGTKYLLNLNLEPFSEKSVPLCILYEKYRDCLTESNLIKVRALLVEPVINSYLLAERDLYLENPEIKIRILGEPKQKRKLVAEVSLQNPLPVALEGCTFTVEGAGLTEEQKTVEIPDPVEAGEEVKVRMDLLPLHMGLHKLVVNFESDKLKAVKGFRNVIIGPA

Assay [2] has as its target T2, TG2 (transglutaminase-2, transglutaminase type 2) (Homo sapiens, UniProt P21980, R19S).
T2 sequence (P21980 1-687 R19S): T1 sequence (P21980 1-687 K265S) with R19S, S265K

In assay [3] the target is T3, TG2 (transglutaminase-2, transglutaminase type 2) (Homo sapiens, UniProt P21980, R263S).
T3 sequence (P21980 1-687 R263S): T1 sequence (P21980 1-687 K265S) with R263S, S265K

Assay [4] has as its target T4, TG2 (transglutaminase-2, transglutaminase type 2) (Homo sapiens, UniProt P21980, R262S).
T4 sequence (P21980 1-687 R262S): T1 sequence (P21980 1-687 K265S) with R262S, S265K

Numbering of substitutions follows the chain as printed.

Broadly, the IC50 is the midpoint of a concentration-inhibition curve. Low values mean higher potency, high ones lower potency. On to `Nc1nc2c(ncn2[C@@H]2O[C@H](COP(=O)(O)OP(=O)(O)OP(=O)(O)O)[C@@H](O)[C@H]2O)c(=O)[nH]1` [GTP], for which the IC50 in assay [1] came out at 182 ± 17 µM; in assay [2] it was 254 ± 8 µM; in assay [3], 79 ± 15 µM; in assay [4], 23 ± 5 µM.
